The nature of assay [1]: Trypanosoma cruzi growth suppression in host cells – NIH3T3 host cells, beta-gal luminescence, confirmation (AID 2044).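 Note: intracellular parasites grown in NIH/3T3 mouse fibroblasts as host cells; luminescent beta-galactosidase reporter signal from transgenic T. cruzi replicating inside host cells; inhibitors lower the luminescence signal.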 The assay is classed as functional, cell-based.
Assay [2] deals with Beta-2 adrenergic receptor (Homo sapiens, UniProt P07550). Kind of assay: ADRB2 activation measured by internalization – cell-based, FAP fluorogen, flow cytometry, cherry pick 1, dose response (AID 588763). The assay is classed as functional.
Assay [3] in a line: NIH3T3 cell viability loss – ATP luminescence, mouse fibroblasts, counter-screen, dose response (AID 2010).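 Note: cells exposed to compound for about 90 hours before reading.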 The assay is classed as functional, cell-based.
Assay [4] addresses Protein disulfide-isomerase (Homo sapiens, UniProt P07237). Kind of assay: inhibition of PDI-driven insulin aggregation – biochemical, turbidity, absorbance, cherry-picked samples, dose response (AID 602350). The format is functional.
Assay [5] can be described thus: alpha-synuclein stem-loop luciferase translation blockers – H4 neuroglioma cells, luminescence, confirmation (AID 1988). The format is functional, cell-based.
The nature of assay [6]: Luminescence Cell-Based Dose Response HTS to Identify Inhibitors of 5'UTR Stem-Loop Driven Prion Protein mRNA Translation in H4 Neuroglioblastoma Cells. [Related pubchem assays: 1827 (Project Summary), 1813 (Primary HTS)]. The assay is classed as functional.
The target of assay [7] is T1, Fatty acid synthase (Homo sapiens, UniProt P49327). Kind of assay: inhibition of human FAS-TE enzyme activity – biochemical, endpoint fluorescence intensity, uHTS hits, dose response (AID 624327).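 Note: fluorescence from hydrolysis of an O-methyl fluorescein acyl ester substrate by the enzyme.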 The assay is classed as functional.
The target of assay [8] is Beta Lactamase (Pseudomonas aeruginosa, UniProt Q932Y6). Kind of assay: BLA reporter interference, concentration series – BLA reporter cells, FRET fluorescence, artefact control for TLR9-MyD88 binding inhibitor project, dose response (AID 588341).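 Note: cell based assay in CHO-K1 cells stably expressing beta-lactamase.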 The assay is classed as cell-based.
Assay [9] concerns CHO. In words: CHO cell viability loss, potency – luminescence, cytotoxicity control for TLR9-MyD88 binding inhibitor project, dose response (AID 588339).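 Note: CHO cells stably coexpressing TLR9 and MyD88 fusions from primary screen; compound exposure lasted 48 hours before viability readout.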 Particulars: Cricetulus griseus. The assay is classed as functional, cell-based, hamster.
The target of assay [10] is T1, Fatty acid synthase. Kind of assay: inhibition of human FAS-TE enzyme activity – biochemical, kinetic fluorescence intensity, dose response (AID 624326).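 Note: rate of fluorescence rise from hydrolysis of a fluorogenic O-methyl fluorescein ester substrate.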 The assay is classed as functional.
Assay [11] is described as follows: luciferase reporter signal suppression in cells – H4 neuroglioma cells, luminescence, dose response (AID 1990). The format is functional, cell-based. A general note: In a reporter assay the amount or activity of a reporter protein is the signal.
Assay [12] is described as follows: cells. The format is functional, cell-based.
Assay [13] can be described thus: cells. The format is functional, cell-based. The source holds these as a separate data set.
The nature of assay [14]: loss of viability in HepG2 cells – cell-based, CellTiter-Glo, cherry-picked, cytotoxicity control for Shn3 inhibitor project, dose response (AID 624134). The assay is classed as functional. In general terms: Cellular ATP, detected with luciferase, serves as a proxy for viable cell number.
The target of assay [15] is T2, Replicative DNA helicase DnaB (Mycobacterium tuberculosis, UniProt P9WMR3).
T2 sequence (P9WMR3 whole entry): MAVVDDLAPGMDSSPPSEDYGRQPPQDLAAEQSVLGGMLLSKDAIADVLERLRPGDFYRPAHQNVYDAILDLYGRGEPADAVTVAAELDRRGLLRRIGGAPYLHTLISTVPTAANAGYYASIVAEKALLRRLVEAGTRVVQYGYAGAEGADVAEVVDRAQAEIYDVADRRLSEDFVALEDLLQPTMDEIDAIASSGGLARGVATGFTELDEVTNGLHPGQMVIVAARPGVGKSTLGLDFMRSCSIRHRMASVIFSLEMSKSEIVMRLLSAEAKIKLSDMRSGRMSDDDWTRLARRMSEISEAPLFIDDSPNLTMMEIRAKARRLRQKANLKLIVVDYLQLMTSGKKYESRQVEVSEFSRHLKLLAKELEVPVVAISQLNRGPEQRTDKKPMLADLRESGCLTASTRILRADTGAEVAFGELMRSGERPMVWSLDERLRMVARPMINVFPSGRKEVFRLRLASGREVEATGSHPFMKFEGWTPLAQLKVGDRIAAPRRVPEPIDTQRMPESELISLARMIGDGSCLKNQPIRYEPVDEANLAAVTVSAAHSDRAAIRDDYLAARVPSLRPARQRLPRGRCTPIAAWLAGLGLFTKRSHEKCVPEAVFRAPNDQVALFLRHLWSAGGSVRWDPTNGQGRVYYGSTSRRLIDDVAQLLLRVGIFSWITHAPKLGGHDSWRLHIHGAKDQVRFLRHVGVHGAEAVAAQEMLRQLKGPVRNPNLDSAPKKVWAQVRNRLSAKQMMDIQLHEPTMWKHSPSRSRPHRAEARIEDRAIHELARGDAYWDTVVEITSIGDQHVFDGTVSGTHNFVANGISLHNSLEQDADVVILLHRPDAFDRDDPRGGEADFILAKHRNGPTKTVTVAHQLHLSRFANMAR
Kind of assay: DnaB intein splicing inhibitors, dose response, biochemical, cell-free fluorescence (AID 449749). The assay is classed as functional.

A short description of assay [16]: non-specific 3'UTR reporter inhibition in Clone20-Shn3RL – cell-based, Renilla luciferase, cherry-picked, counter-screen for Shn3 inhibitor project, dose response (AID 624133). The assay is classed as functional. (In general: A counterscreen serves to expose hits that act by an unwanted route or on another target.)
Assay [17] has as its target Trypsin (Sus scrofa, UniProt P00761). In words: trypsin protease activity blockade – biochemical, quenched peptide fluorescence, cherry-pick, selectivity assay for Rce1 protease inhibitor project, dose response (AID 488789).
Assay [18] addresses T3, Protein RecA (Mycobacterium tuberculosis, UniProt P9WHJ3).
T3 sequence (P9WHJ3 whole entry): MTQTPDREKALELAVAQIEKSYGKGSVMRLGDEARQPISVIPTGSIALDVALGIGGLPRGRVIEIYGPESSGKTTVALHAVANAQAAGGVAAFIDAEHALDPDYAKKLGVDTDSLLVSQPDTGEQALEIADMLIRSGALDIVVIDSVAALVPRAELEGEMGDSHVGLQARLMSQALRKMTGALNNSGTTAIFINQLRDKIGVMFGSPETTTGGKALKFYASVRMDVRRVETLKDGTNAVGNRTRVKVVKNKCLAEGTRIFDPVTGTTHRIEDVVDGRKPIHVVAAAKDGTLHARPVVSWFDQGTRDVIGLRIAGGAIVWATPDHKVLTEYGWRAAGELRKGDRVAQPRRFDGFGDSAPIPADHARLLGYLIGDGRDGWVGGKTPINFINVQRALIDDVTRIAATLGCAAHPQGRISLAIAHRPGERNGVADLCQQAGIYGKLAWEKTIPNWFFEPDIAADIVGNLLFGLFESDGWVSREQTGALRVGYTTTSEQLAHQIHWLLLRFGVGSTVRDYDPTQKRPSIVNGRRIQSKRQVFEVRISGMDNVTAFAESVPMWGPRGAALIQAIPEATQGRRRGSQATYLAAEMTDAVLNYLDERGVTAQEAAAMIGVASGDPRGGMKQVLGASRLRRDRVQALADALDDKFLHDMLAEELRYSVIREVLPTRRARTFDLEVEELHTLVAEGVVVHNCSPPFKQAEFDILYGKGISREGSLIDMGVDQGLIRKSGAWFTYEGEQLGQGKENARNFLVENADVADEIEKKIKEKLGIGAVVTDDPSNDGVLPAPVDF
In words: Fluorescence Cell-Free Homogeneous Dose Retest to Identify Inhibitors of RecA-Intein Splicing Activity. [Related pubchem assays (depositor defined):AID2097, AID2223, AID489010, AID492950]. The format is functional.

In assay [19] the target is T4, CAAX prenyl protease 2 (Saccharomyces cerevisiae S288c, UniProt Q03530).
T4 sequence (Q03530 whole entry): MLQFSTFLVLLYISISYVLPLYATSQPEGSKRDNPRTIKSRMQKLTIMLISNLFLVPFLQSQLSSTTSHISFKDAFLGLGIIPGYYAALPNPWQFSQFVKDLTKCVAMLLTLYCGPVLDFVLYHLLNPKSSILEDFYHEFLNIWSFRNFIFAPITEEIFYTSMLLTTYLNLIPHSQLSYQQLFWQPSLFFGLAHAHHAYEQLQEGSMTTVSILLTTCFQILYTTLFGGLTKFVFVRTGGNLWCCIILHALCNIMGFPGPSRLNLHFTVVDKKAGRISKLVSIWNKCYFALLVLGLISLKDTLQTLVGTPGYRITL
The assay is classed as biochemical.

The nature of assay [20]: reduction of Shn3 3'UTR-driven luciferase in osteoblasts – cell-based, Clone20 osteoblasts, firefly luciferase, cherry-picked, dose response (AID 624132).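 Note: firefly luciferase luminescence from reporter carrying the Shn3 3'UTR in osteoblasts.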 The assay is classed as functional.
Assay [21] has as its target T5, CAAX prenyl protease 2 (Homo sapiens, UniProt Q9Y256).
T5 sequence (Q9Y256 whole entry): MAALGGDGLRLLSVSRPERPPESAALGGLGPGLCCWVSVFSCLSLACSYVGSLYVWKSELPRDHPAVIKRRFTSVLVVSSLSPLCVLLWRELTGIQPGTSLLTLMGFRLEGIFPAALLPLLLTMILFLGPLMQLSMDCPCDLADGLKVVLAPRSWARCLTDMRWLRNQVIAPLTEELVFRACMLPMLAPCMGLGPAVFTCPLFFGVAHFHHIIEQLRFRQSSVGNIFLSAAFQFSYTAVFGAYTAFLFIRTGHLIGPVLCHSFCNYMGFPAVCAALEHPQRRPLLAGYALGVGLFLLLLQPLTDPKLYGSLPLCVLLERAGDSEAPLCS
In words: inhibition of Ras-converting CAAX protease Rce1 – biochemical, yeast membranes, quenched-peptide fluorescence, cherry-pick, dose response (AID 588849).

The test system of assay [22] is BJ. Kind of assay: growth inhibition of engineered Ras-driven BJ cells – cell-based, alamar blue fluorescence, cherrypicked samples, dose response (AID 2631).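 Note: confirmatory dose-response assay in RAS-dependent BJ fibroblasts engineered with TERT, LT and ST, with cytotoxicity read by fluorescence.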 The settings on record: Homo sapiens. The assay is classed as functional.
For assay [23], the system named is BJ. Kind of assay: cells. The format is functional, cell-based. Particulars: Homo sapiens.
Assay [24] relates to BJ. Kind of assay: BJ-TERT-LT-ST fibroblast viability loss – cell-based, RAS-independent, luminescence, dose response (AID 1935).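 Note: BJ fibroblasts immortalized with TERT plus LT and ST oncogenes.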 The format is functional. Particulars: Homo sapiens.
Assay [25] concerns BJ. In words: BJ-TERT fibroblast viability loss – cell-based, RAS-independent, luminescence, dose response (AID 1933). Particulars: Homo sapiens. The assay is classed as functional.
Assay [26] in a line: DRD fibroblast viability loss – cell-based, non-viral oncogenic, luminescence, dose response (AID 1934). The settings on record: Homo sapiens. The format is functional.

Results on 8 molecules are retold here after ChEMBL document CHEMBL1201862, “PubChem BioAssay data set” (2004).

Structures are written as SMILES. Calls of active or inactive are those of the source.

Sequence of Beta Lactamase (Q932Y6 whole entry, the tested form may be a part): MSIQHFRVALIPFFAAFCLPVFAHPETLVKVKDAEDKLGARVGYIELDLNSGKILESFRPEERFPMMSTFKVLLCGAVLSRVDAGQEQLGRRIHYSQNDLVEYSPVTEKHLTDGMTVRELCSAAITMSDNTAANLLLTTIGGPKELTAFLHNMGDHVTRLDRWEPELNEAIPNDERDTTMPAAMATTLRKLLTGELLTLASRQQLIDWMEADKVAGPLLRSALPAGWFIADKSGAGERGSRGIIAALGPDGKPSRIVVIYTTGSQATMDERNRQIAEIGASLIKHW
T1 sequence (P49327 whole entry): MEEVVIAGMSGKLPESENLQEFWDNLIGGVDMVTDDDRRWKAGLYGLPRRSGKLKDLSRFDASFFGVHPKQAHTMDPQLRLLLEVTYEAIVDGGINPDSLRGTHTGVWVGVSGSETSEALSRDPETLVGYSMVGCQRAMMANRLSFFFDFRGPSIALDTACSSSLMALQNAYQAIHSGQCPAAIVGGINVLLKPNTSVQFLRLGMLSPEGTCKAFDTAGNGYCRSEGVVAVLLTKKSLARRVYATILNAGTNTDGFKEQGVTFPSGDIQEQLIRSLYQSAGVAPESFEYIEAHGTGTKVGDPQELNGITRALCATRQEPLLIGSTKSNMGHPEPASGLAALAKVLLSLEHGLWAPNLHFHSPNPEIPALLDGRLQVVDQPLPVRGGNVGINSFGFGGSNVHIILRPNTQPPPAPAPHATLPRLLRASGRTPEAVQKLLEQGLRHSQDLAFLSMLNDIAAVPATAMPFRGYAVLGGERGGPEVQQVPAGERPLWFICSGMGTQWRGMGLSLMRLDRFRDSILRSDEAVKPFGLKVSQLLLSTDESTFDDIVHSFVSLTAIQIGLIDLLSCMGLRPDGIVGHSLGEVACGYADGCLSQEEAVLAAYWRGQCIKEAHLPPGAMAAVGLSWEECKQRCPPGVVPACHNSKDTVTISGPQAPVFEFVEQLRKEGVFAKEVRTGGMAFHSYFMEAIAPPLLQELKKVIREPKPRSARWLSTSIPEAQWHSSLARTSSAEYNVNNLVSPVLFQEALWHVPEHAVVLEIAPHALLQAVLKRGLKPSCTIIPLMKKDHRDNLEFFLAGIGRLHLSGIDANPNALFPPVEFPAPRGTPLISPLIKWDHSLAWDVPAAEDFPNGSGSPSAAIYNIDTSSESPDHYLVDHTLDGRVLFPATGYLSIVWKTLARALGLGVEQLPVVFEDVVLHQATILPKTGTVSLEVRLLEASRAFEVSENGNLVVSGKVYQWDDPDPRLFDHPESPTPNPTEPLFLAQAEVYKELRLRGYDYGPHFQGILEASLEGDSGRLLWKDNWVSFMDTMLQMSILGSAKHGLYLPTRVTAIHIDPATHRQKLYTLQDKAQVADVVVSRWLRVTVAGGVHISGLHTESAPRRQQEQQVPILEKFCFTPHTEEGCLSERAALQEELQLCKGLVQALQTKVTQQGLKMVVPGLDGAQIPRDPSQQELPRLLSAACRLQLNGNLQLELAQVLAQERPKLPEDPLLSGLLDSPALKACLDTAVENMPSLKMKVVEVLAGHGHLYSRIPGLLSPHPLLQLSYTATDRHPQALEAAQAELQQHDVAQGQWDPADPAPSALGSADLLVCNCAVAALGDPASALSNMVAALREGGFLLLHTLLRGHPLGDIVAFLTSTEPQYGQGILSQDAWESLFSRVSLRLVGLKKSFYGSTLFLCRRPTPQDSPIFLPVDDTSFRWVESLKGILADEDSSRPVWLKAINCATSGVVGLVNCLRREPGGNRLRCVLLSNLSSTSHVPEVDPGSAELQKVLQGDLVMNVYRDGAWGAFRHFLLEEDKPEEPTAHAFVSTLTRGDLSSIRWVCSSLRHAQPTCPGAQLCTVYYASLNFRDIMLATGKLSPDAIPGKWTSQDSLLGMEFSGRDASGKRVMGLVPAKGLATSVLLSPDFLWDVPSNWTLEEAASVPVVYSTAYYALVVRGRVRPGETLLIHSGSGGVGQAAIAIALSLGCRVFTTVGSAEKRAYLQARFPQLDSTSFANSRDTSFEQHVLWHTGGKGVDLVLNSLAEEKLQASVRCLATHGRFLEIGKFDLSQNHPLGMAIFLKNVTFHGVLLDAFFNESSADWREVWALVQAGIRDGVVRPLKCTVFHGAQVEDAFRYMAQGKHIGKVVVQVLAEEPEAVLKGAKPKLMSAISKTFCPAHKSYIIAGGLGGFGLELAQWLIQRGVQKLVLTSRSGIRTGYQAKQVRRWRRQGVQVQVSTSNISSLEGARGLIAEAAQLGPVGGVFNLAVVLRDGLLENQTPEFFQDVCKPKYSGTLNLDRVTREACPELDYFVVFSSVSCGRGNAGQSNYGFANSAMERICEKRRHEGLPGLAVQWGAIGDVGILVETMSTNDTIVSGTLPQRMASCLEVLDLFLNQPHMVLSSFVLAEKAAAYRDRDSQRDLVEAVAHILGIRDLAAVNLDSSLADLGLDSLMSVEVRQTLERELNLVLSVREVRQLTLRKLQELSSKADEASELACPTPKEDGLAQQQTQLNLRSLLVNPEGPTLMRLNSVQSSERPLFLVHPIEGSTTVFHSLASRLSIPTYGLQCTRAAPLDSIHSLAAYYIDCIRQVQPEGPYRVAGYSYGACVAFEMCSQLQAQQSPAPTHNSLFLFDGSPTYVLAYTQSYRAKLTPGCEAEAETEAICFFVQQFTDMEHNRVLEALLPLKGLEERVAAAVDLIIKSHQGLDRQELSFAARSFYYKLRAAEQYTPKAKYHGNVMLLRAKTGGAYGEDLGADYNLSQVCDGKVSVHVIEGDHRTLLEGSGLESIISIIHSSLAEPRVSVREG
Sequence of Protein disulfide-isomerase (P07237 whole entry): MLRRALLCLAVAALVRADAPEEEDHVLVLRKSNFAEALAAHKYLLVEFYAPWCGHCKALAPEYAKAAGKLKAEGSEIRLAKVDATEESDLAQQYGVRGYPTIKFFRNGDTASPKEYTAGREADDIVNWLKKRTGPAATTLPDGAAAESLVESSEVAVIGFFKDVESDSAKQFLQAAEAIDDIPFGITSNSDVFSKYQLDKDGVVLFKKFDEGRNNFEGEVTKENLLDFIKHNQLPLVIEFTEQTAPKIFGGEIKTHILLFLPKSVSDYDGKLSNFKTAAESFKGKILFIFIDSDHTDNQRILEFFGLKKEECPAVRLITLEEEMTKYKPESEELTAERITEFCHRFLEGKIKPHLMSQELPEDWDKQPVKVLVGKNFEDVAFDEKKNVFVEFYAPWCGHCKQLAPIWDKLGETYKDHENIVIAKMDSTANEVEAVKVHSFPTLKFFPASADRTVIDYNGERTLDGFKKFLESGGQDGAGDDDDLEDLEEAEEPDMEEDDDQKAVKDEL
Sequence of Trypsin (P00761 whole entry): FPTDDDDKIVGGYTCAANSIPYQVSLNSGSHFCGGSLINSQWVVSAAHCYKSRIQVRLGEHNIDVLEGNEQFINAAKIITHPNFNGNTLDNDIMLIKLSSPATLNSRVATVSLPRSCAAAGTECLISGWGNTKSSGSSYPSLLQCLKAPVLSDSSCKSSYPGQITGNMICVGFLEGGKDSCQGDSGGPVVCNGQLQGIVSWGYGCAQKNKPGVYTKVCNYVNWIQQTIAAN
Sequence of Beta-2 adrenergic receptor (P07550 whole entry): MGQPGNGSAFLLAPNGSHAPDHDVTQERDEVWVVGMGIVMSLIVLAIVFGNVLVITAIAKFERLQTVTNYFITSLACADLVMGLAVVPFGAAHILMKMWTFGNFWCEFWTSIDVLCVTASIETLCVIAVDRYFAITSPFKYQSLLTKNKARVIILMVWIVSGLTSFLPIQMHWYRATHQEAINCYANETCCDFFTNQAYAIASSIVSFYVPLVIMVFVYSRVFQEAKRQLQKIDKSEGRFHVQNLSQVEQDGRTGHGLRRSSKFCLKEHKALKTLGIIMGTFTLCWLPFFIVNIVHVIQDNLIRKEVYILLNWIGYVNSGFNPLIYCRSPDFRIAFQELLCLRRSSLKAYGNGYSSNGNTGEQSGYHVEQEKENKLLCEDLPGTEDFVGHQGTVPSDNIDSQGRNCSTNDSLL

With `CCN(c1ccc2c(c1)OCO2)S(=O)(=O)c1cc(Br)cc2c1N(C(C)=O)CC2`, the EC50 in assay [1] was 0.891 µM (active); in [2], 10.5 µM (inactive); in [3], > 60 µM (not active).
Take `CCN1CC2(COC(=O)c3ccccc3N)CCC(OC)C34C5CC6C(OC)CC(O)(C5C6OC)C(O)(C(OC)C23)C14` (stereo not given): the AC50 in [4] is 19.5 µM (active).
`Cc1ccc(C(=O)N/C(=C/c2ccc(-c3ccc([N+](=O)[O-])cc3)o2)C(=O)NCCCN(C)C)cc1`: the EC50 in assay [5], in [6] and in [11] was > 120 µM (not active) each time. The IC50 is 13.8 µM (active) in assay [7], 6.55 µM (active) in assay [8], 22.9 µM (inactive) in assay [9] and 5.71 µM (active) in assay [10].
For `COc1ccccc1-c1cc(C(F)(F)F)nc(S(=O)(=O)CCCC(=O)NCc2ccc(F)cc2)n1`, the EC50 in assay [12] was > 350 µM (not active); in assay [13] it was > 350 µM (not active); in assay [18] it was 3.61 µM (active). The AC50 in assay [14] was > 70 µM (inactive); in assay [15] it was 5.72 µM (active); in assay [16], 23.6 µM (active); in [17] it was 2.3 µM (active); in assay [19], 7.9 µM (active); in [20], 4.43 µM (active). In assay [21], the AC50 is 10.8 µM (active).
With `CCC(C)C(=O)OCC1(c2ccc(C)cc2OC(=O)C(C)C)CO1` (stereo not given), the EC50 in assay [22] is 8.58 µM (active).
With `O=C(NCc1ccccc1C(F)(F)F)c1cccc2c1C(=O)c1ccc(N3CCC(N4CCCCC4)CC3)cc1S2(=O)=O`, the AC50 was 9.77 µM (active) in assay [14] and 21.2 µM (active) in [20]. The IC50 in assay [8] was 5.89 µM (active); in assay [9], 8.71 µM (active).
Regarding `COc1cccc(CSc2nc3ccccc3cc2C=O)c1`, the EC50 in [5] is 13.7 µM (active); in assay [22], 0.301 µM (active); in assay [6], 17.7 µM (active); in assay [23], 21.6 µM (active); in [24], 1.17 µM (active); in [25] it was 0.944 µM (inconclusive). Further, the EC50 in assay [26] was 1.27 µM (active); in [11], 16.6 µM (active).
Take `CCN1C(=O)C2C(c3ccccc3F)NC(Cc3ccc(O)cc3)(C(=O)OC)C2C1=O` (stereo not given): the AC50 in assay [4] was 10.2 µM (active).

For orientation: EC50 means the midpoint of the concentration-response curve. In general, AC50 refers to the concentration giving half of the maximal activity seen. In general, IC50 refers to the concentration that inhibits the measured activity by half.
